Results published in ChEMBL document CHEMBL1909046, “DrugMatrix in vitro pharmacology data”.

System: not listed separately
Test: DRUGMATRIX: Atrial Natriuretic Factor (ANF) radioligand binding (ligand: [125I] ANF (rat))
Format: cell membranes, Cavia porcellus, Dunkin-Hartley, Adrenal gland, Membrane
Conditions: Not Active = under 50% inhibition at 10 µM
In the case of CN1CCN(c2c(F)cc3c(=O)c(C(=O)O)cn(CCF)c3c2F)CC1 [FLEROXACIN], the IC50 is reported as “Not Active” and the Ki is reported as “Not Active”.
In the case of O=c1[nH]c(=O)n([C@H]2C[C@H](O)[C@@H](CO)O2)cc1F [FLOXURIDINE], the IC50 is reported as “Not Active” and the Ki is reported as “Not Active”.
In the case of COC(=O)Nc1nc2cc(C(=O)c3ccc(F)cc3)ccc2[nH]1 [FLUBENDAZOLE], the IC50 is reported as “Not Active” and the Ki is reported as “Not Active”.
For O=C(O)P(=O)(O)O [FOSCARNET], the IC50 was “Not Active” and the Ki was “Not Active”.
With O=c1c(-c2ccc(O)cc2)coc2cc(O)cc(O)c12 [GENISTEIN] the IC50 was “Not Active” and the Ki was “Not Active”.

Molecular target: Prostaglandin G/H synthase 1 (Homo sapiens, UniProt P23219);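 further: inhibition of COX-1 enzyme activity, with arachidonic acid supplied as substrate; in other assays of this panel Not Active means under 50% inhibition at 10 µM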
Sequence (P23219 whole entry): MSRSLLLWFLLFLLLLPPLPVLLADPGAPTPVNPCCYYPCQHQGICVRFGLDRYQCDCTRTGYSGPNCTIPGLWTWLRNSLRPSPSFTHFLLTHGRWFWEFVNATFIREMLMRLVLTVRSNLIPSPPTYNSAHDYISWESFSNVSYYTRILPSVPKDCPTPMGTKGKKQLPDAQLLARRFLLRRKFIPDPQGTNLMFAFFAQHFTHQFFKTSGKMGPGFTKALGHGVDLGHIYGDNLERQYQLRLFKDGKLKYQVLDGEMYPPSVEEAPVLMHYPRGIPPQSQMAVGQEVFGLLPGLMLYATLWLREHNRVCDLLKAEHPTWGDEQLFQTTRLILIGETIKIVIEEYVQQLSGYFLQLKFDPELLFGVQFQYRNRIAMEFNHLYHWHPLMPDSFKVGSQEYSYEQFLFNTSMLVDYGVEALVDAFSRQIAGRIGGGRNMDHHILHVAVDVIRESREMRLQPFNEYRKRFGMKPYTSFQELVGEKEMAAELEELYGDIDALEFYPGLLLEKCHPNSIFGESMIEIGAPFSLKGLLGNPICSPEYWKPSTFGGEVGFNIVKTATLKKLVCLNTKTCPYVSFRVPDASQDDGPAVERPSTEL
Test: biochemical
Format: tissue-based, Platelet
Conditions: platelet
In the case of CN1CCN(c2c(F)cc3c(=O)c(C(=O)O)cn(CCF)c3c2F)CC1 [FLEROXACIN], the IC50 is reported as “Not Active”.
For O=c1[nH]c(=O)n([C@H]2C[C@H](O)[C@@H](CO)O2)cc1F [FLOXURIDINE], the IC50 was “Not Active”.
For COC(=O)Nc1nc2cc(C(=O)c3ccc(F)cc3)ccc2[nH]1 [FLUBENDAZOLE], the IC50 was “Not Active”.
For O=C(O)P(=O)(O)O [FOSCARNET], the IC50 was “Not Active”.
For O=c1c(-c2ccc(O)cc2)coc2cc(O)cc(O)c12 [GENISTEIN], the IC50 was “Not Active”.

System: not listed separately
Test: DRUGMATRIX: GABAA, Flunitrazepam, Central radioligand binding (ligand: [3H] Flunitrazepam)
Format: cell membranes, Rattus norvegicus, Wistar, Brain, Membrane
Conditions: Not Active = under 50% inhibition at 10 µM
In the case of CN1CCN(c2c(F)cc3c(=O)c(C(=O)O)cn(CCF)c3c2F)CC1 [FLEROXACIN], the IC50 is reported as “Not Active” and the Ki is reported as “Not Active”.
For O=c1[nH]c(=O)n([C@H]2C[C@H](O)[C@@H](CO)O2)cc1F [FLOXURIDINE], the IC50 was “Not Active” and the Ki was “Not Active”.
For COC(=O)Nc1nc2cc(C(=O)c3ccc(F)cc3)ccc2[nH]1 [FLUBENDAZOLE], the IC50 was “Not Active” and the Ki was “Not Active”.
In the case of O=C(O)P(=O)(O)O [FOSCARNET], the IC50 is reported as “Not Active” and the Ki is reported as “Not Active”.
With O=c1c(-c2ccc(O)cc2)coc2cc(O)cc(O)c12 [GENISTEIN] the IC50 was “Not Active” and the Ki was “Not Active”.

Molecular target: Glycine receptor (Rattus norvegicus, UniProt P22771+P24524+P07727+P20781); further: in other assays of this panel Not Active means under 50% inhibition at 10 µM
Test: not given
Format: cell membranes, Wistar, Spinal cord, Membrane
Conditions: not given
In the case of CN1CCN(c2c(F)cc3c(=O)c(C(=O)O)cn(CCF)c3c2F)CC1 [FLEROXACIN], the IC50 is reported as “Not Active”.
In the case of O=c1[nH]c(=O)n([C@H]2C[C@H](O)[C@@H](CO)O2)cc1F [FLOXURIDINE], the IC50 is reported as “Not Active”.
For COC(=O)Nc1nc2cc(C(=O)c3ccc(F)cc3)ccc2[nH]1 [FLUBENDAZOLE], the IC50 was “Not Active”.
For O=C(O)P(=O)(O)O [FOSCARNET], the IC50 was “Not Active”.
In the case of O=c1c(-c2ccc(O)cc2)coc2cc(O)cc(O)c12 [GENISTEIN], the IC50 is reported as “Not Active”.

Molecular target: T1, Cysteinyl leukotriene receptor 1 (Homo sapiens, UniProt Q9Y271); further: in other assays of this panel Not Active means under 50% inhibition at 10 µM
T1 sequence (Q9Y271 whole entry): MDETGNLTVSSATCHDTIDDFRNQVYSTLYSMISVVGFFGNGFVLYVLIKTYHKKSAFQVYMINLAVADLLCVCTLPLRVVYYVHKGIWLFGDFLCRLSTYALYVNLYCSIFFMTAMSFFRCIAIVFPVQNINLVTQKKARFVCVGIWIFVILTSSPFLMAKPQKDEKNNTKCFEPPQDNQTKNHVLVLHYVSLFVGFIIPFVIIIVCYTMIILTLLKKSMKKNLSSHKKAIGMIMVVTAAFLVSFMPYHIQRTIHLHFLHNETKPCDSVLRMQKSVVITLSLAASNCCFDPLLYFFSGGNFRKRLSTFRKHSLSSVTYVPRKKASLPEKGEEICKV
Test: not given
Format: cell membranes, Membrane
Conditions: cho-k1
In the case of CN1CCN(c2c(F)cc3c(=O)c(C(=O)O)cn(CCF)c3c2F)CC1 [FLEROXACIN], the IC50 is reported as “Not Active”.
For O=c1[nH]c(=O)n([C@H]2C[C@H](O)[C@@H](CO)O2)cc1F [FLOXURIDINE], the IC50 was “Not Active”.
In the case of COC(=O)Nc1nc2cc(C(=O)c3ccc(F)cc3)ccc2[nH]1 [FLUBENDAZOLE], the IC50 is reported as “Not Active”.
For O=C(O)P(=O)(O)O [FOSCARNET], the IC50 was “Not Active”.
For O=c1c(-c2ccc(O)cc2)coc2cc(O)cc(O)c12 [GENISTEIN], the IC50 was “Not Active”.

Molecular target: cGMP-specific 3',5'-cyclic phosphodiesterase (Homo sapiens, UniProt O76074)
Test: DRUGMATRIX: Phosphodiesterase PDE5 enzyme inhibition (substrate: [3H]cGMP + cGMP)
Format: tissue-based, Platelet
Conditions: platelet; Not Active = under 50% inhibition at 10 µM
For CN1CCN(c2c(F)cc3c(=O)c(C(=O)O)cn(CCF)c3c2F)CC1 [FLEROXACIN], the IC50 was “Not Active”.
For O=c1[nH]c(=O)n([C@H]2C[C@H](O)[C@@H](CO)O2)cc1F [FLOXURIDINE], the IC50 was “Not Active”.
With COC(=O)Nc1nc2cc(C(=O)c3ccc(F)cc3)ccc2[nH]1 [FLUBENDAZOLE] the IC50 was “Not Active”.
With O=C(O)P(=O)(O)O [FOSCARNET] the IC50 was “Not Active”.
For O=c1c(-c2ccc(O)cc2)coc2cc(O)cc(O)c12 [GENISTEIN], the IC50 was “Not Active”.

Molecular target: Cytochrome P450 2E1 (Homo sapiens, UniProt P05181); further: in other assays of this panel Not Active means under 50% inhibition at 10 µM
Sequence (P05181 whole entry): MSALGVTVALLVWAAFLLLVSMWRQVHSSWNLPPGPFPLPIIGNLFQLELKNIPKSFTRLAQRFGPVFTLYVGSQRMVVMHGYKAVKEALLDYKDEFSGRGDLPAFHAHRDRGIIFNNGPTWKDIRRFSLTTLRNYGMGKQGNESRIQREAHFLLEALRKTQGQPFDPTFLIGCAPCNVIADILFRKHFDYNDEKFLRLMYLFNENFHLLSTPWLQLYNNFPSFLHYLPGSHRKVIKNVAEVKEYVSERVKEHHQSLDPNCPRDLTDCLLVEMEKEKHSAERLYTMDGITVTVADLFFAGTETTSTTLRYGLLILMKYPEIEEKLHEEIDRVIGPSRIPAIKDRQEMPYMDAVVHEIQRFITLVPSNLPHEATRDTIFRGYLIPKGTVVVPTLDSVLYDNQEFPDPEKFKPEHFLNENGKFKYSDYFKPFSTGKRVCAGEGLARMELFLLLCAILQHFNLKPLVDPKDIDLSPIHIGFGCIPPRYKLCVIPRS
Test: not given
Conditions: bti-tn-5b1-4
For CN1CCN(c2c(F)cc3c(=O)c(C(=O)O)cn(CCF)c3c2F)CC1 [FLEROXACIN], the IC50 was “Not Active” and the Ki was “Not Active”.
With O=c1[nH]c(=O)n([C@H]2C[C@H](O)[C@@H](CO)O2)cc1F [FLOXURIDINE] the IC50 was “Not Active” and the Ki was “Not Active”.
In the case of COC(=O)Nc1nc2cc(C(=O)c3ccc(F)cc3)ccc2[nH]1 [FLUBENDAZOLE], the IC50 is reported as “Not Active” and the Ki is reported as “Not Active”.
In the case of O=C(O)P(=O)(O)O [FOSCARNET], the IC50 is reported as “Not Active” and the Ki is reported as “Not Active”.
With O=c1c(-c2ccc(O)cc2)coc2cc(O)cc(O)c12 [GENISTEIN] the IC50 was “Not Active” and the Ki was “Not Active”.

Molecular target: T2, Glucocorticoid receptor (Homo sapiens, UniProt P04150); further: in other assays of this panel Not Active means under 50% inhibition at 10 µM
T2 sequence (P04150 whole entry): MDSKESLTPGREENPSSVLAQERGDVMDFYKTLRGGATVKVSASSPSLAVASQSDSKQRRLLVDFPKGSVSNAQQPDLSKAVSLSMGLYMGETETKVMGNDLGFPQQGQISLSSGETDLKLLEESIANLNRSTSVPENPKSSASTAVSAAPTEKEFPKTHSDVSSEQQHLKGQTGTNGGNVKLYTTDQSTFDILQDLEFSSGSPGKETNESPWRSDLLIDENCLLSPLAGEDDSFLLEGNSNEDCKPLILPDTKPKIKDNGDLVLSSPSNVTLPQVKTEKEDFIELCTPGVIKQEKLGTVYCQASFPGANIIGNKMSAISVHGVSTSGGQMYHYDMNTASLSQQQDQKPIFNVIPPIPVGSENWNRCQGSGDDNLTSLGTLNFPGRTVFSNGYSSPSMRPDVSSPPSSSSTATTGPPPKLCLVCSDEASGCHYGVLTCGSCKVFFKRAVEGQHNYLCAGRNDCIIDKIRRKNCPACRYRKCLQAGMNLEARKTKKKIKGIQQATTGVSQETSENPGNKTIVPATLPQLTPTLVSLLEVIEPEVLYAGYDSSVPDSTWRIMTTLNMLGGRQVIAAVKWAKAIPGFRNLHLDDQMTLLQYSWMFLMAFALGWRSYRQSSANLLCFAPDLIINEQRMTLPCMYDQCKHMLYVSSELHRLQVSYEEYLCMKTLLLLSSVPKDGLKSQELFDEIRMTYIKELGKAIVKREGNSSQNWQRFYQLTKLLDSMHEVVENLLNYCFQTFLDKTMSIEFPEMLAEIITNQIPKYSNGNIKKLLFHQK
Test: not given
Conditions: hela s3
For CN1CCN(c2c(F)cc3c(=O)c(C(=O)O)cn(CCF)c3c2F)CC1 [FLEROXACIN], the IC50 was “Not Active”.
In the case of O=c1[nH]c(=O)n([C@H]2C[C@H](O)[C@@H](CO)O2)cc1F [FLOXURIDINE], the IC50 is reported as “Not Active”.
For COC(=O)Nc1nc2cc(C(=O)c3ccc(F)cc3)ccc2[nH]1 [FLUBENDAZOLE], the IC50 was “Not Active”.
With O=C(O)P(=O)(O)O [FOSCARNET] the IC50 was “Not Active”.
With O=c1c(-c2ccc(O)cc2)coc2cc(O)cc(O)c12 [GENISTEIN] the IC50 was “Not Active”.
